# In PMC7108740, “Exploring the molecular structures that confer ligand selectivity for galanin type II and III receptors” (PLoS ONE, 2020):
# Ends that are not written are not given here.
# Assays:
# Assay type in all cases: cell-based
# [1] = target: T1, GALR3 single mutant Y^103F (Homo sapiens, UniProt O60755, Y103F); assay: SRE-luc luciferase assay, GALR3 Y103F; details: GALR3 Y^103F; SRE-luc in HEK293 Gqi cells, ligand 6 h; mean ± S.E.; SEM
# T1 construct: expressed in transfected cells; host or cells: HEK293 cells stably expressing Gqi
# T1 sequence (O60755 1-368 Y103F): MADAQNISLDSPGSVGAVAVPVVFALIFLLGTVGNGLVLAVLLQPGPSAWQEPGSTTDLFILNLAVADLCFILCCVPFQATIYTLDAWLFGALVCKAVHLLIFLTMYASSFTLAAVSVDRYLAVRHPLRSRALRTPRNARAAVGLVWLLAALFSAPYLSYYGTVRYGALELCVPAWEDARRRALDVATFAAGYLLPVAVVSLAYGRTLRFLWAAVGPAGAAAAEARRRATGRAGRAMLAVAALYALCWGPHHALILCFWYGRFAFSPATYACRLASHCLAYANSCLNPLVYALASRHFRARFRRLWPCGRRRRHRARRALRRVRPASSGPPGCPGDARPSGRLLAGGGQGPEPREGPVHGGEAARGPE
# Excerpt: (§1) For domain swapping between GALR2 and GALR3, individual cDNA fragments of interest were amplified by polymerase chain reaction (PCR) with Pfu polymerase (ELPIS Biotech, Daejeon, Korea) and two specific primers, one corresponding to the 5' or 3' end of the GALR2 or GALR3 cDNA and the other to the region of overlap between the two receptors. The two resulting fragments, one from GALR2 and the other from GALR3, were subjected to a second round of PCR to generate the chimeric cDNAs. To construct single, double-, triple-, pentuple-, hextuple-, and septuple-mutant receptors, amino acids of GALR3 were substituted for the amino acids at the corresponding positions in GALR2 using PCR-based site-directed mutagenesis. All of the chimeric constructs were cloned into the pcDNA3 expression vector at HindⅢ and XbaⅠ sites. The DNA sequences of the chimeras were verified by automatic sequencing. HEK293 cells stably expressing the Gqi construct, which allows induction of Gq-dependent signaling pathways upon activation of a Gi-coupled receptor [14, 30], were maintained in Dulbecco's Modified Eagle's Medium (DMEM) in the presence of 10% fetal bovine serum and 1% penicillin and streptomycin. For all transfections, 200 ng DNA (100 ng receptor and 100 ng SRE-luc) mixed with lipofectamine 2000 was applied to 60–80% confluent cells on a multi-well plate according to the manufacturer's instructions (Invitrogen, Carlsbad, CA). For luciferase assays, HEK293 Gqi cells were seeded on 48-well plates at a density of 2.5 × 10^4 cells/well one day before transfection. […] The luciferase activity in 50 μl cell extract was determined using a luciferase assay system according to the standard protocol for the Synergy 2 Multi-Mode Microplate Reader (BioTek, Winooski, VT, USA). […] The concentrations of agonists that induced half-maximal stimulation (EC50) were calculated using the GraphPad PRISM5 software (GraphPad software, Inc., San Diego, CA). […]
# [2] = target: T2, GALR3 single mutant L^184M (Homo sapiens, UniProt O60755, L184M); assay: SRE-luc luciferase assay, GALR3 L184M; details: GALR3 L^184M; SRE-luc in HEK293 Gqi cells, ligand 6 h; mean ± S.E.; SEM
# T2 construct: expressed in transfected cells; host or cells: HEK293 cells stably expressing Gqi
# T2 sequence (O60755 whole entry L184M): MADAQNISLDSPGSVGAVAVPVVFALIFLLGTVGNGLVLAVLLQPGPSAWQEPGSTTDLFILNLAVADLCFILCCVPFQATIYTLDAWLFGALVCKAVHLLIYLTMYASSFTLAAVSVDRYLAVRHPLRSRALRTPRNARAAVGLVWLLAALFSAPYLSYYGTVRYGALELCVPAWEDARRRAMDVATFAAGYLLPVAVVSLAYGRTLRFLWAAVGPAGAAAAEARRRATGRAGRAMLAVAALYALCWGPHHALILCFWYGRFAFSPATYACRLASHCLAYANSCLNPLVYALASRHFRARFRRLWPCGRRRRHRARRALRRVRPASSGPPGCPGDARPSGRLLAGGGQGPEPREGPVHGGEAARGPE
# Excerpt: as §1, with “sequencing.” for “sequencing. HEK293 cells stably expressing the Gqi construct, which allows induction of Gq-dependent signaling pathways upon activation of a Gi-coupled receptor [14, 30], were maintained in Dulbecco's Modified Eagle's Medium (DMEM) in the presence of 10% fetal bovine serum and 1% penicillin and streptomycin. For all transfections, 200 ng DNA (100 ng receptor and 100 ng SRE-luc) mixed with lipofectamine 2000 was applied to 60–80% confluent cells on a multi-well plate according to the manufacturer's instructions (Invitrogen, Carlsbad, CA). For luciferase assays, HEK293 Gqi cells were seeded on 48-well plates at a density of 2.5 × 10^4 cells/well one day before transfection.”
# [3] = target: T3, GALR3 single mutant V^186I (Homo sapiens, UniProt O60755, V186I); assay: SRE-luc luciferase assay, GALR3 V186I; details: GALR3 V^186I; SRE-luc in HEK293 Gqi cells, ligand 6 h; mean ± S.E.; SEM
# T3 construct: expressed in transfected cells; host or cells: HEK293 cells stably expressing Gqi
# T3 sequence (O60755 whole entry V186I): as the sequence (O60755 whole entry L184M) above, with M184L, V186I counted along it
# Excerpt: as §1, with “sequencing.” for “sequencing. HEK293 cells stably expressing the Gqi construct, which allows induction of Gq-dependent signaling pathways upon activation of a Gi-coupled receptor [14, 30], were maintained in Dulbecco's Modified Eagle's Medium (DMEM) in the presence of 10% fetal bovine serum and 1% penicillin and streptomycin. For all transfections, 200 ng DNA (100 ng receptor and 100 ng SRE-luc) mixed with lipofectamine 2000 was applied to 60–80% confluent cells on a multi-well plate according to the manufacturer's instructions (Invitrogen, Carlsbad, CA). For luciferase assays, HEK293 Gqi cells were seeded on 48-well plates at a density of 2.5 × 10^4 cells/well one day before transfection.”
# [4] = target: T4, GALR3 single mutant A^187C (Homo sapiens, UniProt O60755, A187C); assay: SRE-luc luciferase assay, GALR3 A187C; details: GALR3 A^187C; SRE-luc in HEK293 Gqi cells, ligand 6 h; mean ± S.E.; SEM
# T4 construct: expressed in transfected cells; host or cells: HEK293 cells stably expressing Gqi
# T4 sequence (O60755 whole entry A187C): as the sequence (O60755 whole entry L184M) above, with M184L, A187C counted along it
# Excerpt: as §1, with “sequencing.” for “sequencing. HEK293 cells stably expressing the Gqi construct, which allows induction of Gq-dependent signaling pathways upon activation of a Gi-coupled receptor [14, 30], were maintained in Dulbecco's Modified Eagle's Medium (DMEM) in the presence of 10% fetal bovine serum and 1% penicillin and streptomycin. For all transfections, 200 ng DNA (100 ng receptor and 100 ng SRE-luc) mixed with lipofectamine 2000 was applied to 60–80% confluent cells on a multi-well plate according to the manufacturer's instructions (Invitrogen, Carlsbad, CA). For luciferase assays, HEK293 Gqi cells were seeded on 48-well plates at a density of 2.5 × 10^4 cells/well one day before transfection.”
# [5] = target: T5, GALR3 single mutant A^190V (Homo sapiens, UniProt O60755, A190V); assay: SRE-luc luciferase assay, GALR3 A190V; details: GALR3 A^190V; SRE-luc in HEK293 Gqi cells, ligand 6 h; mean ± S.E.; SEM
# T5 construct: expressed in transfected cells; host or cells: HEK293 cells stably expressing Gqi
# T5 sequence (O60755 whole entry A190V): as the sequence (O60755 whole entry L184M) above, with M184L, A190V counted along it
# Excerpt: as §1, with “sequencing.” for “sequencing. HEK293 cells stably expressing the Gqi construct, which allows induction of Gq-dependent signaling pathways upon activation of a Gi-coupled receptor [14, 30], were maintained in Dulbecco's Modified Eagle's Medium (DMEM) in the presence of 10% fetal bovine serum and 1% penicillin and streptomycin. For all transfections, 200 ng DNA (100 ng receptor and 100 ng SRE-luc) mixed with lipofectamine 2000 was applied to 60–80% confluent cells on a multi-well plate according to the manufacturer's instructions (Invitrogen, Carlsbad, CA). For luciferase assays, HEK293 Gqi cells were seeded on 48-well plates at a density of 2.5 × 10^4 cells/well one day before transfection.”
# [6] = target: T6, GALR3 mutant L^184M,V^186I,A^187C (Homo sapiens, UniProt O60755, A187C/L184M/V186I); assay: SRE-luc luciferase assay, GALR3 L184M,V186I,A187C; details: GALR3 L^184M,V^186I,A^187C; SRE-luc in HEK293 Gqi cells, ligand 6 h; mean ± S.E.; SEM
# T6 construct: expressed in transfected cells; host or cells: HEK293 cells stably expressing Gqi
# T6 sequence (O60755 whole entry L184M/V186I/A187C): as the sequence (O60755 whole entry L184M) above, with V186I, A187C counted along it
# Excerpt: as §1, with “sequencing.” for “sequencing. HEK293 cells stably expressing the Gqi construct, which allows induction of Gq-dependent signaling pathways upon activation of a Gi-coupled receptor [14, 30], were maintained in Dulbecco's Modified Eagle's Medium (DMEM) in the presence of 10% fetal bovine serum and 1% penicillin and streptomycin. For all transfections, 200 ng DNA (100 ng receptor and 100 ng SRE-luc) mixed with lipofectamine 2000 was applied to 60–80% confluent cells on a multi-well plate according to the manufacturer's instructions (Invitrogen, Carlsbad, CA). For luciferase assays, HEK293 Gqi cells were seeded on 48-well plates at a density of 2.5 × 10^4 cells/well one day before transfection.”
# [7] = target: T7, GALR3 mutant L^184M,V^186I,A^190V (Homo sapiens, UniProt O60755, A190V/L184M/V186I); assay: SRE-luc luciferase assay, GALR3 L184M,V186I,A190V; details: GALR3 L^184M,V^186I,A^190V; SRE-luc in HEK293 Gqi cells, ligand 6 h; mean ± S.E.; SEM
# T7 construct: expressed in transfected cells; host or cells: HEK293 cells stably expressing Gqi
# T7 sequence (O60755 whole entry L184M/V186I/A190V): as the sequence (O60755 whole entry L184M) above, with V186I, A190V counted along it
# Excerpt: as §1, with “sequencing.” for “sequencing. HEK293 cells stably expressing the Gqi construct, which allows induction of Gq-dependent signaling pathways upon activation of a Gi-coupled receptor [14, 30], were maintained in Dulbecco's Modified Eagle's Medium (DMEM) in the presence of 10% fetal bovine serum and 1% penicillin and streptomycin. For all transfections, 200 ng DNA (100 ng receptor and 100 ng SRE-luc) mixed with lipofectamine 2000 was applied to 60–80% confluent cells on a multi-well plate according to the manufacturer's instructions (Invitrogen, Carlsbad, CA). For luciferase assays, HEK293 Gqi cells were seeded on 48-well plates at a density of 2.5 × 10^4 cells/well one day before transfection.”
# [8] = target: T8, GALR3 mutant A^190V,A^191F,G^192S (Homo sapiens, UniProt O60755, A190V/A191F/G192S); assay: SRE-luc luciferase assay, GALR3 A190V,A191F,G192S; details: GALR3 A^190V,A^191F,G^192S; SRE-luc in HEK293 Gqi cells, ligand 6 h; mean ± S.E.; SEM
# T8 construct: expressed in transfected cells; host or cells: HEK293 cells stably expressing Gqi
# T8 sequence (O60755 whole entry A190V/A191F/G192S): as the sequence (O60755 whole entry L184M) above, with M184L, A190V, A191F, G192S counted along it
# Excerpt: as §1, with “sequencing.” for “sequencing. HEK293 cells stably expressing the Gqi construct, which allows induction of Gq-dependent signaling pathways upon activation of a Gi-coupled receptor [14, 30], were maintained in Dulbecco's Modified Eagle's Medium (DMEM) in the presence of 10% fetal bovine serum and 1% penicillin and streptomycin. For all transfections, 200 ng DNA (100 ng receptor and 100 ng SRE-luc) mixed with lipofectamine 2000 was applied to 60–80% confluent cells on a multi-well plate according to the manufacturer's instructions (Invitrogen, Carlsbad, CA). For luciferase assays, HEK293 Gqi cells were seeded on 48-well plates at a density of 2.5 × 10^4 cells/well one day before transfection.”
# [9] = target: T9, GALR3 mutant L^184M,V^186I,A^187C, A^190V,A^191F (Homo sapiens, UniProt O60755, A187C/A190V/A191F/L184M/V186I); assay: SRE-luc luciferase assay, GALR3 pentuple mutant (A191F); details: GALR3 L^184M,V^186I,A^187C, SRE-luc in HEK293 Gqi cells, ligand 6 h, mean ± S.E., SEM
# T9 construct: expressed in transfected cells; host or cells: HEK293 cells stably expressing Gqi
# T9 sequence (O60755 whole entry L184M/V186I/A187C/A190V/A191F): as the sequence (O60755 whole entry L184M) above, with V186I, A187C, A190V, A191F counted along it
# Excerpt: as §1, with “sequencing.” for “sequencing. HEK293 cells stably expressing the Gqi construct, which allows induction of Gq-dependent signaling pathways upon activation of a Gi-coupled receptor [14, 30], were maintained in Dulbecco's Modified Eagle's Medium (DMEM) in the presence of 10% fetal bovine serum and 1% penicillin and streptomycin. For all transfections, 200 ng DNA (100 ng receptor and 100 ng SRE-luc) mixed with lipofectamine 2000 was applied to 60–80% confluent cells on a multi-well plate according to the manufacturer's instructions (Invitrogen, Carlsbad, CA). For luciferase assays, HEK293 Gqi cells were seeded on 48-well plates at a density of 2.5 × 10^4 cells/well one day before transfection.”
# [10] = target: T10, GALR3 mutant L^184M,V^186I,A^187C, A^190V,G^192S (Homo sapiens, UniProt O60755, A187C/A190V/G192S/L184M/V186I); assay: SRE-luc luciferase assay, GALR3 pentuple mutant (G192S); details: GALR3 L^184M,V^186I,A^187C, SRE-luc in HEK293 Gqi cells, ligand 6 h, mean ± S.E., SEM
# T10 construct: expressed in transfected cells; host or cells: HEK293 cells stably expressing Gqi
# T10 sequence (O60755 whole entry L184M/V186I/A187C/A190V/G192S): as the sequence (O60755 whole entry L184M) above, with V186I, A187C, A190V, G192S counted along it
# Excerpt: as §1, with “sequencing.” for “sequencing. HEK293 cells stably expressing the Gqi construct, which allows induction of Gq-dependent signaling pathways upon activation of a Gi-coupled receptor [14, 30], were maintained in Dulbecco's Modified Eagle's Medium (DMEM) in the presence of 10% fetal bovine serum and 1% penicillin and streptomycin. For all transfections, 200 ng DNA (100 ng receptor and 100 ng SRE-luc) mixed with lipofectamine 2000 was applied to 60–80% confluent cells on a multi-well plate according to the manufacturer's instructions (Invitrogen, Carlsbad, CA). For luciferase assays, HEK293 Gqi cells were seeded on 48-well plates at a density of 2.5 × 10^4 cells/well one day before transfection.”
# [11] = target: T11, GALR3 mutant L^184M,V^186I,A^187C, A^190V,A^191F,G^192S (Homo sapiens, UniProt O60755, A187C/A190V/A191F/G192S/L184M/V186I); assay: SRE-luc luciferase assay, GALR3 hextuple mutant; details: GALR3 L^184M,V^186I,A^187C, SRE-luc in HEK293 Gqi cells, ligand 6 h, mean ± S.E., SEM
# T11 construct: expressed in transfected cells; host or cells: HEK293 cells stably expressing Gqi
# T11 sequence (O60755 whole entry L184M/V186I/A187C/A190V/A191F/G192S): as the sequence (O60755 whole entry L184M) above, with V186I, A187C, A190V, A191F, G192S counted along it
# Excerpt: as §1, with “sequencing.” for “sequencing. HEK293 cells stably expressing the Gqi construct, which allows induction of Gq-dependent signaling pathways upon activation of a Gi-coupled receptor [14, 30], were maintained in Dulbecco's Modified Eagle's Medium (DMEM) in the presence of 10% fetal bovine serum and 1% penicillin and streptomycin. For all transfections, 200 ng DNA (100 ng receptor and 100 ng SRE-luc) mixed with lipofectamine 2000 was applied to 60–80% confluent cells on a multi-well plate according to the manufacturer's instructions (Invitrogen, Carlsbad, CA). For luciferase assays, HEK293 Gqi cells were seeded on 48-well plates at a density of 2.5 × 10^4 cells/well one day before transfection.”
EC50 [1],EC50 [2],EC50 [3],EC50 [4],EC50 [5],EC50 [6],EC50 [7],EC50 [8],EC50 [9],EC50 [10],EC50 [11],Substance
302 ± 72.9 nM,–,–,–,–,–,–,–,–,–,–,NWTPQAALYLKGAQ-NH2 [A^7-SPX]
–,437 ± 89.8 nM,513 ± 158 nM,550 ± 151 nM,468 ± 105 nM,457 ± 118 nM,324 ± 89.2 nM,123 ± 39.8 nM,141 ± 36.5 nM,145 ± 24.3 nM,112 ± 25.1 nM,NWTPQAMLYLKGPQ-NH2 [P^13-SPX]
